Results on two substances are retold here after patent publication US9353155B2, “Cell-penetrating peptides” (Universite Pierre et Marie Curie (Paris 6), priority 2011, dated 2016).

The format of data set [1] is in vitro ADME, human. The procedure: The ratio of intensity of each pick is represented, relative to its own control. The R residue was mutated to K (Mut1-DPT-C9h), N (Mut2-DPT-C9h) or A (Mut3-DPT-C9h). Round: control DPT-C9h peptide (SEQ ID NO:6), Square: Mut1-DPT-C9h, Triangle: Mut2-DPT-C9h, Diamond: Mut3-DPT-C9h.
Analysis Peptide Stability in Human Serum
Analysis of peptides degradation was done by Proteominer and Maldi-Tof as previously described.

In data set [2] the test system is human breast cancer xenograft. The conditions noted are these: injected in mice bearing human breast cancer xenograft; cited from earlier work. Background: Xenograft models place foreign cells or tissue in a host animal.
For a further data set, the system named is human cell lines. The settings on record: cited from earlier work.
Data set [3] relates to tumoral B cells isolated from chronic lymphocyte leukemia patients. The settings on record: cited from earlier work.

No end group written: not given here.

With “VKKKKIKAEIKIYVETLDDIFEQWAHSEDL [Mut3-DPT-C9h, VKKKKIKAEIKI-YVETLDDIFEQWAHSEDL]”, the “degradation upon contact with human serum” value in data set [1] is “not degraded”.

Consider “VKKKKIKREIKI-YVETLDDIFEQWAHSEDL (VKKKKIKREIKIYVETLDDIFEQWAHSEDL; cell penetrating peptide) [DPT-C9h]”, for which the size of tumor result in data set [2] is “important reduction”. In addition, the induction of apoptosis entry in the data set on human cell lines is given as “induces apoptosis”. In addition, in data set [3], the “effect on healthy cells” value was “without effect”. Further, the apoptotic effect result in data set [3] (tumoral B cells isolated from chronic lymphocyte leukemia patients) is given as “specific apoptotic effect”.
